Data on 21 compounds can be found in ChEMBL document CHEMBL1151707, “Novel 3-phenylpropane-1,2-diamine derivates as inhibitors of aminopeptidase N (APN)” (Bioorg Med Chem, 2008).

Experiment [1] addresses 72 kDa type IV collagenase (Homo sapiens, UniProt P08253). The experiment is described as follows: Inhibition of MMP2.
For experiment [2], the target named is T1, Aminopeptidase N (Sus scrofa, UniProt P15145).
T1 sequence (P15145 whole entry): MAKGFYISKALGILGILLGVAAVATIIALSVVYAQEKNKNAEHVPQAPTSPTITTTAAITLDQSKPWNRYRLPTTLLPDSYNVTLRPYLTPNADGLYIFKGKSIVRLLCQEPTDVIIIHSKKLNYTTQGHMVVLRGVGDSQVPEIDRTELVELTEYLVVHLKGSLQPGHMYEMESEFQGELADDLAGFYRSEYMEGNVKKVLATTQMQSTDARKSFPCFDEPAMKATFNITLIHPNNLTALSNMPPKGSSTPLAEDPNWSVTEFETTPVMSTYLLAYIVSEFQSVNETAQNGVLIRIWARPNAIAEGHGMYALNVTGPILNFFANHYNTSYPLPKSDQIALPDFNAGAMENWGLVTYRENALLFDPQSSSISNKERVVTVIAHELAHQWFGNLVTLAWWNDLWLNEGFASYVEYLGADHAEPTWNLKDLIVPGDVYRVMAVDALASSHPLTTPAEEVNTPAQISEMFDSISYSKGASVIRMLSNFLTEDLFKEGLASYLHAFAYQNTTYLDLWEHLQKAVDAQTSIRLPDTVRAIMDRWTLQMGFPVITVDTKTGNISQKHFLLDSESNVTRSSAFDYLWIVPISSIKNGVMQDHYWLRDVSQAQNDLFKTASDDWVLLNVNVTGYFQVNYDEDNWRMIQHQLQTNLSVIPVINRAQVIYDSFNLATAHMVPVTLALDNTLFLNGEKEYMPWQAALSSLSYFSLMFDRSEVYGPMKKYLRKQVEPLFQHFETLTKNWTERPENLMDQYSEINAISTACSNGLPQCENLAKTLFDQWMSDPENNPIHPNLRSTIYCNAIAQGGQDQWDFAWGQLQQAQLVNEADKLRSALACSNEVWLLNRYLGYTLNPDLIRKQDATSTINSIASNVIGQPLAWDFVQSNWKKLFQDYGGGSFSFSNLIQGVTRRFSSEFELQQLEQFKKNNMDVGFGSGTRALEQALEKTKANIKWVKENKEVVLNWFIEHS
As to the kind of experiment: Inhibition of pig kidney microsome aminopeptidase N by UV-visible spectrophotometer.

In experiment [3] the test system is HL-60. As to the kind of experiment: Antiproliferative activity against human HL-60 cells after 48 hrs by MTT assay. It is filed as functional, cell-based. To be noted: HL-60, 48 h. Background: Tetrazolium assays rely on reduction of a dye to a coloured formazan, in cell work by metabolically active cells.

In general, IC50 refers to the concentration at which inhibition is half-maximal. Low values mean greater potency in that assay, high ones weaker potency in that assay.

SMILES strings stand for the structures.

Sequence of 72 kDa type IV collagenase (P08253 whole entry): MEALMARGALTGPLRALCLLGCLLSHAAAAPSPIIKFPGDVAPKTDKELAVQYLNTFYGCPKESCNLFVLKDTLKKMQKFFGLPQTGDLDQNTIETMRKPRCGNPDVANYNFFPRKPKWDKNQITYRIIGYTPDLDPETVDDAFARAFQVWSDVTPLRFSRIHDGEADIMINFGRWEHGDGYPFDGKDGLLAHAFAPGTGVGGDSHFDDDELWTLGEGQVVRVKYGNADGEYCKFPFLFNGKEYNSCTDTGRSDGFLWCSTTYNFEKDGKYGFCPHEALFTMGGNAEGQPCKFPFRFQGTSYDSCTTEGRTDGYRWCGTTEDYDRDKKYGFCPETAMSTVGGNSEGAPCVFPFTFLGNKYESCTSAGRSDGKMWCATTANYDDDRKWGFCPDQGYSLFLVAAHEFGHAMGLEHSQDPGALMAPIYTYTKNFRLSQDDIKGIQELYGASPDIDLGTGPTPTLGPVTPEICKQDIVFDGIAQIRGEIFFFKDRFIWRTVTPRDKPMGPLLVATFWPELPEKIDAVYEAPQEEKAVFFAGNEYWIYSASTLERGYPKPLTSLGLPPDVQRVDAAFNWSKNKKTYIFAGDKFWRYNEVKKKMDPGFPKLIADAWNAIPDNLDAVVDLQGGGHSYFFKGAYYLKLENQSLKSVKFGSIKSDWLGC

As to `N[C@@H](CNC(=O)CCc1ccccc1)Cc1ccccc1`, the 50% inhibitory concentration (IC50) amounted to 547 µM in experiment [1] and 290 µM in experiment [2].
For `C[C@H](N)C(=O)NC[C@H](N)Cc1ccccc1`, in that order: 772 µM and greater than 1000 µM.
As for `NCC(=O)NC[C@H](N)Cc1ccccc1`, the concentration for half-maximal inhibition (IC50) is 23.5 µM in experiment [1] and greater than 1000 µM in experiment [2].
On to `N[C@@H](CNC(=O)Cc1ccccc1)Cc1ccccc1`, for which the values for the concentration for half-maximal inhibition (IC50) in experiment [1] and in experiment [2] were 632 µM and greater than 1000 µM, respectively.
As for `CSCC[C@H](N)C(=O)NC[C@H](N)Cc1ccccc1`, the IC50 came to 112 µM in experiment [1] and 119 µM in experiment [2].
As to `CC(C)C[C@H](NC(=O)[C@@H](O)[C@H](N)Cc1ccccc1)C(=O)O` [UBENIMEX], the IC50 in experiment [1] stood at 162 µM.
For the compound `N[C@@H](CNC(=O)/C=C/c1ccc(O)c(O)c1)Cc1ccccc1`, the results for the half-inhibitory concentration (IC50) in experiment [1] and in experiment [2] were 329 µM and 492 µM, respectively.
Consider `NC(=O)CC[C@H](N)C(=O)NC[C@H](N)Cc1ccccc1`, for which the 50% inhibitory concentration (IC50) in experiment [1] is 802 µM; in experiment [2], greater than 1000 µM.
Consider `N[C@@H](CNC(=O)CCCc1ccccc1)Cc1ccccc1`, for which the values for the 50% inhibitory concentration (IC50) in experiment [1] and in experiment [2] were 221 µM and greater than 1000 µM, respectively.
For `N[C@@H](CNC(=O)Cc1ccccc1Nc1c(Cl)cccc1Cl)Cc1ccccc1`, the IC50 in experiment [1] and in experiment [2] was greater than 1000 µM each time.
On to `CC(C)C[C@H](N)C(=O)NC[C@H](N)Cc1ccccc1`, for which the figures for the IC50 in experiment [1] and in experiment [2] were 170 µM and 142 µM, respectively.
`NCCCC[C@H](N)C(=O)NC[C@H](N)Cc1ccccc1`: the results for the IC50 in experiment [1] and in experiment [2] were 99.7 µM and 164 µM, respectively.
`N[C@@H](CNC(=O)c1cc([N+](=O)[O-])cc([N+](=O)[O-])c1)Cc1ccccc1`: the results for the 50% inhibitory concentration (IC50) in experiment [1] and in experiment [2] were 101 µM and 204 µM, respectively.
As to `CC(C)[C@H](N)C(=O)NC[C@H](N)Cc1ccccc1`, the concentration for half-maximal inhibition (IC50) in experiment [1] is 151 µM; in experiment [2], 476 µM.
For the compound `NCCC(=O)NC[C@H](N)Cc1ccccc1`, the values for the half-maximal inhibitory concentration (IC50) in experiment [1] and in experiment [2] were 11.2 µM and 409 µM, respectively.
For `NCCC[C@H](N)C(=O)NC[C@H](N)Cc1ccccc1`, in that order: 219 µM and 50.5 µM.
Turning to `N[C@@H](CNC(=O)[C@H](Cc1ccccc1)NC(=O)[C@@H](N)Cc1ccccc1)Cc1ccccc1`, the IC50 in experiment [1] was 183 µM; in experiment [2], 15.5 µM; in experiment [3], 630 µM.
On to `N[C@@H](CNC(=O)[C@@H](N)CS)Cc1ccccc1`, for which the IC50 was 78.8 µM in experiment [1], 21.1 µM in experiment [2] and 1090 µM in experiment [3].
With `N[C@@H](CNC(=O)[C@@H](N)CO)Cc1ccccc1`, the concentration for half-maximal inhibition (IC50) in experiment [1] came out at 202 µM; in experiment [2], 33.7 µM.
As for `NCCCCCC(=O)NC[C@H](N)Cc1ccccc1`, the results for the 50% inhibitory concentration (IC50) in experiment [1] and in experiment [2] were 99.7 µM and 164 µM, respectively.
As to `N[C@@H](CNC(=O)/C=C/c1ccccc1)Cc1ccccc1`, the half-inhibitory concentration (IC50) was 211 µM in experiment [1] and 596 µM in experiment [2].
